Measured values reported in patent US11596716B2, “Compounds and matrices for use in bone growth and repair” (Human BioMolecular Research Institute, priority 2013, dated 2023).
pEC50: −log10 of the molar value. Blank lines part the entries; values can stand above or below the molecule they belong to.

Tests used:
C2C12 cells [1] = assay: Alkaline Phosphatase (ALP) functional activity assay in C2C12 cells; format: cell-based, Mouse; conditions: for activation at 0.5 µM: Mus musculus, C2C12, 144 h, compounds of Formula VI, normalized to DMSO treatment
Method: Alkaline Phosphatase (ALP) Functional Activity Assay: C2C12 cells were plated into 12-well plates with 7,000 cells/well in 1 mL growth media. […] 1, 2, 3, or 4 in 0.1% DMSO was added (500 nM). Half the media was exchanged with fresh media containing compound every 48 hrs. After 6 days, media was removed, ALP Lysis Buffer (10 mM Tris-HCl pH 8.0, 1 mM MgCl2, and 1% Triton X100) added, and cell lysate obtained (10 min incubation at RT) by centrifugation (5 min at 3500× g at 4° C.). Para-nitrophenol phosphate (pNPP) (2 mg/mL) was incubated with 50 μl cell lysate (10 mins, 37° C.). After addition of […] 0.02 N NaOH, absorbance OD405 was measured. Protein concentration was determined by Bradford protein assay. Results of ALP activity were plotted as nM pNP hydrolyzed/mg total protein. After normalizing control samples (i.e., DMSO-treated samples) to one-fold, the fold-changes were plotted to indicate the relative ALP activity. […] This protocol was applied to hMSC and E15 cells as well.

Solubility in water = format: physicochemical
hMSCs [2] = assay: qPCR of target gene mRNA expression in hMSCs; format: cell-based, human; conditions: hMSCs, comparison with compound 3 and calcium phosphate ceramic
Method: qPCR detection of osteogenic markers: Cells were cultured with compound in the presence or absence of matrix as described above, but using 96-well plate format. Total RNA was extracted from cells (as above) using Trizol. cDNA was made using 750 ng of total RNA with Bio-Rad iscript kit and was diluted 20-fold before being used for qPCR. qPCR was conducted under the following conditions: 95° C., 2 min; 95° C., 10 s and 60° C., 45 s for 40 cycles; 60° C. for 71 cycles for melt curve. qPCR results were analyzed by the ΔΔCt method. 18s rRNA was used as an internal standard. This protocol was applied to hMSC and E15 cells.
Runx2 and BMP-2 are osteogenic markers; Axin2, Wnt3a, and Sox 9 are Wnt-inducible gene markers.
The assay for mRNA expression followed the same procedure with hMSCs as described for C2C12 cells (Example 7).

C2C12 cells [3] = assay: Cell proliferation/viability assay (Resazurin / Alamar blue) in C2C12 cells; format: cell-based, Mouse
Method: Cell proliferation/viability assay: Cells were seeded at a density of 500 cells/well on 96-well plates. After 24 hr, compound (i.e., 5 nM, 50 nM, 500 nM or 5000 nM) was added to the cells in the presence or absence of calcium phosphate matrix (5 mg/mL). […] At the specified time, 1 μg of Resazurin was added to each well of the 96-well plate and the fluorescence signal at 590 nm (excitation at 530 nm) was immediately measured. Readings were designated as time zero values (value0h). Cells were incubated for 1 hr before a second fluorescence measurement at 590 nm was made (value1h). The difference in 1 hr and 0 h (value1h−value0h) readings were used to plot the fold-change in cell proliferation/viability after normalizing to control conditions (i.e., DMSO vehicle treatment). Compounds of Formula II or IV that activate Wnt signaling and compounds of Formula VI that activate TLR signaling pathways were analyzed. This protocol was applied to hMSC and E15 cells as well. Cell proliferation was not robust in keeping with a narrow number of cells highly committed to the bone cell lineage.

C2C12 cells [4] = assay: Alizarin Red S staining (calcium deposition) in C2C12 cells; format: cell-based, Mouse; conditions: 500 nM, 25 days of treatment
Method: Alizarin Red S Staining: C2C12 cells were cultured as described for the ALP functional activity assay (above, except compound was added every 48 hr for 25 days), but using 48-well plate format. On day 25, medium was removed and the cells were washed with PBS (calcium and magnesium free). Cells were fixed with 70% ethanol at room temperature for 30 mins, rinsed with water 3×. Following removal of water, 200 μl of Alizarin Red S (2%, pH 4.1) was added to each well and incubated for at least 20 mins. The dye was removed and the cells were washed with excess H2O four times with gentle mixing. The cells were covered with water to prevent evaporation and analyzed by plate reader or microscope. This protocol was applied to hMSC and E15 cells.

hMSCs [5] = assay: TLR4/TLR3 mRNA expression ratio by qPCR in hMSCs; format: cell-based, human; conditions: 500 nM, 8 days
Text: TLRs are modulators of hMSC differentiation. TLRs (TLR1-10) mRNA could be detected by qPCR in hMSCs. TLR4 is a biomarker for osteogenesis and TLR3 is a biomarker for adipogenesis. […]

hMSCs [6] = assay: qPCR of apoptosis biomarkers (Bax and Fos) in hMSCs; format: cell-based, human
hMSCs [7] = assay: Transwell migration of hMSCs to calcium phosphate matrix; format: cell-based, human; conditions: 500 nM
Method: Human MSC migration to the site of bone injury is an important part of the repair process. […] After 8 hrs, compounds were washed off the cells and cells placed in a traditional transwell migration system. The top reservoir contained serum-free DMEM and the bottom reservoir contained DMEM plus 2% FBS. After incubation overnight, non-migrated cells were removed, migrated cells (stuck in the bottom chamber) were then fixed with 70% EtOH (40 mins) and total migrated cells were counted under a microscope after staining with 1 mg/mL of crystal violet (1 hr). hMSCs treated with compound 2 (500 nM, 8 hr) induced a 10-fold greater cell migration to the matrix than DMSO-pre-treated cells under the conditions described above. In a separate experiment, matrix that was pre-coated with compound 4 (as prepared in Example 5) was placed in the bottom chamber and migration of hMSCs from the top chamber was evaluated. Compound 4-coated matrix induced a 2-fold increase in cell migration to the matrix compared to DMSO-treated cells.
hMSC migration was analyzed by using calcium phosphate matrix that had been pre-adsorbed with compounds 1 or 2 (500 nM, as described in Example 5) and studied in the transwell system (2% serum, described above). Compound 1 and 2 induced 3.5-fold and 1.9-fold more cell migration than non-coated ceramic. While non-limiting, these examples show the utility of the approach for increased cell migration and localization to the calcium phosphate ceramic matrix when compounds of the disclosure are present. Use of compounds of Formula II, IV, and VI to pre-coat the ceramic and also pretreat the cells is also of utility.

C2C12 cells [8] = assay: qPCR detection of osteogenic markers in C2C12 cells; format: cell-based, Mouse; conditions: 500 nM, 6 days
hMSCs [9] = assay: Alamar blue cell viability assay in hMSCs; format: cell-based, human; conditions: 500 nM, 25-day-old hMSCs
Method: Cell proliferation/viability assay: Cells were seeded at a density of 500 cells/well on 96-well plates. After 24 hr, compound (i.e., 5 nM, 50 nM, 500 nM or 5000 nM) was added to the cells in the presence or absence of calcium phosphate matrix (5 mg/mL). One-half of the media was replaced with fresh media containing compound every 48 hours for 8 days. At the specified time, 1 μg of Resazurin was added to each well of the 96-well plate and the fluorescence signal at 590 nm (excitation at 530 nm) was immediately measured. Readings were designated as time zero values (value0h). Cells were incubated for 1 hr before a second fluorescence measurement at 590 nm was made (value1h). The difference in 1 hr and 0 h (value1h−value0h) readings were used to plot the fold-change in cell proliferation/viability after normalizing to control conditions (i.e., DMSO vehicle treatment). Compounds of Formula II or IV that activate Wnt signaling and compounds of Formula VI that activate TLR signaling pathways were analyzed. This protocol was applied to hMSC and E15 cells as well. Cell proliferation was not robust in keeping with a narrow number of cells highly committed to the bone cell lineage.
The assay for cell proliferation followed the same procedure with hMSCs as described for C2C12 cells (Example 7).

Wnt transcription = assay: WNT transcriptional reporter assay (Super(8×)TOPflash luciferase, HEK293T cells); format: cell-based; conditions: Wnt3A-expressing vector, 20 hrs, relative to cells treated with DMSO alone, read-out: Wnt transcription potency
Text: Commercially available Super(8×)TOPflash vector driven by a (7×) TCF-firefly luciferase response element was transiently transfected into HEK293T cells, together with a TK-driven Renilla luciferase plasmid as an internal control to normalize the luminescence signal and a Wnt3A-expressing vector as the source of pathway activation. HEK293T cells were transfected with plasmids in DMEM plus 10% fetal bovine serum (FBS) for 8 hr, replated to 96-well plates in DMEM plus 10% FBS followed by treatment with compounds (1.6 nM to 5 M) (DMSO final concentration is 0.5%) for 20 hrs. Firefly and Renilla luciferase activities were measured and normalized by the Renilla luciferase values.

hMSCs [10] = assay: Alkaline Phosphatase functional activity assay in hMSCs; format: cell-based, human; parameters: key to Alkaline Phosphatase activity, −matrix, 8 days / Alkaline Phosphatase activity, +matrix, 8 days / Alkaline Phosphatase activity, −matrix, 25 days / Alkaline Phosphatase activity, +matrix, 25 days: fold-change vs DMSO-treated control (control = 1); conditions: 500 nM
C2C12 cells [11] = assay: qPCR of apoptosis biomarkers (Bax and Fos) in C2C12 cells; format: cell-based, Mouse; conditions: 500 nM or 5 μM every 48 hrs, up to 25 days
[12] = matrix 5 mg/mL, mean +/− SD (n = 3)

- solubility in water (Solubility in water): only sparingly soluble
Compound: O=C(C=Cc1ccc(O)cc1)C=C(O)C=Cc1ccc(O)cc1 [Compound 54, 1,7-Bis(4-hydroxyphenyl)-5-hydroxy-hepta-1,4,6-trien-3-one]
- activation at 0.5 µM (C2C12 cells [1]; absence of matrix): 5 to 50%
- activation at 0.5 µM (C2C12 cells [1]; presence of calcium phosphate matrix): 50 to 100%
- robust mRNA up-regulation of VDR or ALP (hMSCs [2]): not observed
- increase in cell proliferation (Alamar Blue Assay) (C2C12 cells [3]; 50 nM, 3 days): 2 fold

- pEC50 (Wnt transcription): < 7.40
- Alkaline Phosphatase activity, +matrix, 8 days (hMSCs [10]; [12]): 2.6 ± 0.3
- Alkaline Phosphatase activity, +matrix, 25 days (hMSCs [10]; [12]): 4.5 ± 0.4
- Alkaline Phosphatase activity, −matrix, 25 days (hMSCs [10]; mean +/− SD (n = 3)): 2.6 ± 0.3
- Alkaline Phosphatase activity, −matrix, 8 days (hMSCs [10]; mean +/− SD (n = 3), fold): 1.5 ± 0.1
Compound: Cc1nc2c(-c3ccccc3)cnn2c(NCCN(C)C)c1C [Compound 2, 3-phenyl-5,6-dimethyl-7-[N-(2-N,N-dimethylaminoethyl)amino]-pyrazolo[1,5-a]pyrimidine]
- calcium deposition, absence of matrix (C2C12 cells [4]): 2.0 fold
- calcium deposition, presence of matrix (C2C12 cells [4]): 2.3 fold
- TLR4/TLR3 ratio, compound alone (hMSCs [5]): modest increase
- gene expression of apoptosis biomarkers (Bax and Fos) (hMSCs [6]; 500 nM to 5 μM, up to 25 days): unable to detect gene expression of typical apoptosis biomarkers
- cytotoxicity as determined by quantification of apoptosis (hMSCs [6]; hMSCs): no cytotoxicity
- cell migration to the matrix, hMSCs pre-treated with compound, versus DMSO-pre-treated cells (hMSCs [7]; 8 hr pre-treatment, transwell overnight): 10 fold
- cell migration to matrix pre-adsorbed with compound versus non-coated ceramic (hMSCs [7]; transwell, 2% serum): 1.9 fold
- ID3 mRNA expression, presence of matrix (C2C12 cells [8]): 1.7 fold
- cell viability (Alamar blue) (hMSCs [9]): no decrease in cell viability
- ALP activity, combination of compound and matrix compared to compound alone or matrix alone (C2C12 cells [1]; 500 nM, 6 day incubation, tricalcium phosphate ceramic matrix 5 mg/mL (FIG. 2)): synergistic increase in ALP activity
- ALP activity fold-changes +/− SD, +matrix (C2C12 cells [1]; 500 nM, 6 days of culture, calcium phosphate ceramic 5 mg/mL): 23.6 ± 2.5 fold
- ALP functional activity, compound and matrix versus compound alone or matrix alone (hMSCs [10]; 8 and 25 day incubations, matrix 5 mg/mL (FIG. 3)): exceeded the effect of compound alone or matrix alone
- gene expression of apoptosis biomarkers (Bax and Fos) (C2C12 cells [11]): unable to detect gene expression of typical apoptosis biomarkers
- cell viability (Alamar blue) (C2C12 cells [3]; 500 nM every 48 hrs for 25 days): did not show a decrease in cell viability
